Test results: patent US20050159478A1, “Compositions containing d-tocopherol compound polybasic acid partial esters” (priority 2003, published 2005)
Where “and” joins values, the source holds several entries; their conditions need not be identical. Identical values can stand only once.

Legend:
[1] = Oscillatory rheology, softening point at tan(δ) = 1; assay type: physicochemical; conditions: for Rheology (oscillatory) @ Tan(δ) = 1 Temperature (softening point): heating rate 5° C./min, oscillation stress 1.0 Pa, 1.0 Hz
Method: Rheology measurements are conducted with TA Instruments Rheolyst AR-1000N rheometer. Experiments are conducted with the parallel plate geometry in a nitrogen atmosphere. The experiments use an oscillation stress of 1.0 Pa at a frequency of 1.0 Hz. The temperature range of the experiments is 40 to 210° C. at a heating rate of 5.0° C./min. Per analogy to rigid sphere or polymers, for TCS samples below the melting point, change in the pseudo G′ and G″ moduli″ is used as an indication of the softening of the sample. The cross-over point corresponds to the point where the ratio of the […] or tan (δ) is equal to one. The temperature at which tan (δ) is equal to one is considered as the softening point for the solid TCS samples. In addition, the second derivative of the loss modulus vs temperature was calculated. A maximum or minimum in the second derivative indicates a curvature or inflexion in the G″ vs T. This can also be taken as indicator of a change in the state of the samples (softening or melting depending on the temperature).
Softening points of these tocopherol succinate samples were identified using oscillatory rheology measurements. The temperature at which tan(δ) is equal to one, i.e., cross-over point (or the point where the samples are less rigid) is considered as their softening point. We call the moduli “pseudo loss and storage moduli”, since below the melting point, the powder cannot in reality be viscoelastic.

[2] = Differential Scanning Calorimetry of tocopherol calcium succinate samples; assay type: physicochemical; conditions: heating rate 5° C./min; several thermal transitions per sample
Method: DSC measurements are conducted with a Perkin Elmer Pyris 1 Differential Scanning Calorimeter. Experiments are conducted between 40° C. and 250° C. at heating/cooling rates of 5.0 and 10.0° C./min. During the experiments, the samples are enclosed in an air tight aluminum pan. The aluminum pan is in a nitrogen purge at 30 psi.

Row | SMILES | softening point in comparison to synthetic dl-tocopherol calcium succinate ([1]; compared with dl-tocopherol calcium succinate) | Rheology (oscillatory) @ Tan(δ) = 1 Temperature (softening point) [1] | DSC Enthalpy [2] | DSC Onset [2]
1 | Cc1c(C)c2c(c(C)c1OC(=O)CCC(=O)[O-])CC[C@@](C)(CCC[C@H](C)CCC[C@H](C)CCCC(C)C)O2.Cc1c(C)c2c(c(C)c1OC(=O)CCC(=O)[O-])CC[C@@](C)(CCC[C@H](C)CCC[C@H](C)CCCC(C)C)O2.[Ca+2] [d-α-tocopherol calcium succinate] | significantly improved, i.e., increased, softening point | 151 °C and 153 °C |  | 
2 | Cc1c(C)c2c(c(C)c1OC(=O)CCC(=O)[O-])CC[C@@](C)(CCC[C@H](C)CCC[C@H](C)CCCC(C)C)O2.Cc1c(C)c2c(c(C)c1OC(=O)CCC(=O)[O-])CC[C@@](C)(CCC[C@H](C)CCC[C@H](C)CCCC(C)C)O2.[Ca+2] (racemic) [dl-tocopherol calcium succinate, reference compound] |  | 147 °C |  | 
3 | Cc1c(C)c2c(c(C)c1OC(=O)CCC(=O)O)CC[C@@](C)(CCC[C@H](C)CCC[C@H](C)CCCC(C)C)O2 [d-α-tocopherol succinic acid] |  | 74 °C | 80.00 J/g | 74.5 °C
